Experimental findings from patent publication US11767341B2, “Lincosamide antibiotics and uses thereof” (President and Fellows of Harvard College, priority 2017, dated 2023) are described below.

Holding throughout (experiment): MIC determination
What all share (type): cell-based

For one assay, the system named is E. coli MMX 0121 ΔTolC. To be noted: Escherichia coli.
The subject of assay [1] is E. coli MMX TolC parent strain. The note with it: Escherichia coli.
In assay [2] the test system is S. pyogenes MMX 946 Macrolide-Resistant. To be noted: Streptococcus pyogenes.
Assay [3] deals with S. aureus Micromyx USA 300. To be noted: Staphylococcus aureus, USA300; S. aureus Micromyx USA 300; read-out: MIC.
Assay [4] deals with E. faecalis MMX 847 Macrolide-Resistant. To be noted: Enterococcus faecalis.
For a further assay, the system named is H. influenzae ATCC 49247. To be noted: Haemophilus influenzae, ATCC49247.
The next assay concerns S. aureus MMX 3035 cErmA. The note with it: Staphylococcus aureus, MMX3035CERMA.
In assay [5] the test system is P. aeruginosa MMX Mex parent strain. The note with it: Pseudomonas aeruginosa.
The test system of the next assay is P. aeruginosa ATCC 27853. To be noted: Pseudomonas aeruginosa, ATCC27853.
In a further assay the test system is S. aureus BAA 977 iErmA. To be noted: Staphylococcus aureus, BAA977.
A further assay concerns B. fragilis ATCC 25285. The note with it: Bacteroides fragilis, ATCC25285; B. fragilis ATCC 25285; read-out: MIC.
Another assay concerns E. faecalis ATCC 29212. To be noted: Enterococcus faecalis.
Assay [6] has as its system S. pneumoniae MMX 3031 cMefA. To be noted: Streptococcus pneumoniae, MMX3031CMEFA.
The test system of the next assay is E. coli ATCC 25922. The note with it: Escherichia coli.
In assay [7] the test system is P. aeruginosa MMX 3476 Δmex. To be noted: Pseudomonas aeruginosa.
In the next assay the test system is S. pyogenes ATCC 19615. The note with it: Streptococcus pyogenes, ATCC19615; S. pyogenes ATCC 19615; read-out: MIC.
The subject of assay [8] is S. pneumoniae MMX 3028 cErmB. The note with it: Streptococcus pneumoniae, MMX3028CERMB; S. pneumoniae MMX 3028 cErmB; read-out: MIC.
The test system of a further assay is S. pneumoniae ATCC 49619. To be noted: Streptococcus pneumoniae, ATCC49619.
For another assay, the system named is S. aureus ATCC 29213. The note with it: Staphylococcus aureus.
The next assay concerns C. difficile BAA 1805. To be noted: Clostridioides difficile, BAA1805.
Another assay deals with K. pneumoniae ATCC 10031. The note with it: Klebsiella pneumoniae, ATCC10031.
For assay [9], the system named is E. coli MP-74 LptD mutant. To be noted: Escherichia coli.
For the next assay, the system named is E. coli MP-9 ΔTolC. To be noted: Escherichia coli.
Assay [10] concerns S. aureus MP-549 msr(a) USA 300. The note with it: Staphylococcus aureus, USA300, S. aureus MP-549 msr(a) USA 300.
[11] abbreviates: S. pneumoniae ATCC 49619, read-out: MIC.
Where [12] appears, read: ATCC29213, S. aureus ATCC 29213, read-out: MIC.

≈ marks a conversion by molar mass, not a printed value. Read-outs that look alike come from different tables or passages of the source.

For the molecule `C=CC1=CCO[C@@H]2[C@H](CN[C@@H]2C(=O)N[C@H]([C@H](C)Cl)[C@H]2OC(SC)[C@H](O)[C@H](O)C2O)C1` (stereo partly drawn) [FSA-507041], the MIC against E. coli MMX 0121 ΔTolC is 16 µg/mL (≈ 34.6 µM); in [1], more than 32 µg/mL; in [2], more than 32 µg/mL; in [3], 0.25 µg/mL (≈ 0.54 µM); in [4] it was more than 32 µg/mL; with H. influenzae ATCC 49247 it was 16 µg/mL (≈ 34.6 µM). For the same molecule, the MIC with S. aureus MMX 3035 cErmA is more than 32 µg/mL; in assay [5], more than 32 µg/mL; against P. aeruginosa ATCC 27853, more than 32 µg/mL; in the assay on S. aureus BAA 977 iErmA, 0.5 µg/mL (≈ 1.08 µM); in the assay on B. fragilis ATCC 25285, 2 µg/mL (≈ 4.32 µM); in the assay with E. faecalis ATCC 29212 (ATCC29212, read-out: MIC), 2 µg/mL (≈ 4.32 µM). Also, the MIC was not above 0.03 µg/mL in [6]; more than 32 µg/mL against E. coli ATCC 25922 (ATCC25922); more than 32 µg/mL in [7]; 0.06 µg/mL (≈ 0.13 µM) in the assay on S. pyogenes ATCC 19615; 32 µg/mL (≈ 69.1 µM) in assay [8]; not above 0.03 µg/mL in the assay with S. pneumoniae ATCC 49619 (setting [11]). Also, the MIC with S. aureus ATCC 29213 (setting [12]) was 0.5 µg/mL (≈ 1.08 µM); with C. difficile BAA 1805 (C. difficile BAA 1805, read-out: MIC), 0.5 µg/mL (≈ 1.08 µM).

For the molecule `CSC1O[C@H]([C@H](NC(=O)[C@H]2NC[C@@H]3CC(N)CCO[C@H]32)[C@H](C)Cl)C(O)[C@@H](O)[C@H]1O` (stereo partly drawn) [FSA-510012], the MIC (against K. pneumoniae ATCC 10031; against H. influenzae ATCC 49247; with S. aureus BAA 977 iErmA; in the assay on E. faecalis ATCC 29212 (ATCC29212); against E. coli ATCC 25922 (ATCC25922); in assay [9]) was more than 64 µg/mL throughout. The MIC with E. coli MP-9 ΔTolC was more than 64 µg/mL; with S. pyogenes ATCC 19615 it was 32 µg/mL (≈ 70.5 µM); in the assay on S. pneumoniae ATCC 49619 it was more than 64 µg/mL; in the assay with S. aureus ATCC 29213 (ATCC29213), more than 64 µg/mL; in [10] it was more than 64 µg/mL; in the assay with C. difficile BAA 1805 it was more than 64 µg/mL.

Take `CNC1CCO[C@@H]2[C@H](CN[C@@H]2C(=O)N[C@H]([C@H](C)Cl)[C@H]2OC(SC)[C@H](O)[C@H](O)C2O)C1` (stereo partly drawn) [FSA-510065]: the MIC (in the assay with K. pneumoniae ATCC 10031; with H. influenzae ATCC 49247; in the assay with S. aureus BAA 977 iErmA; with E. faecalis ATCC 29212 (ATCC29212); in the assay on E. coli ATCC 25922 (ATCC25922); in [9]) was more than 64 µg/mL in each case. Moreover, the MIC was more than 64 µg/mL against E. coli MP-9 ΔTolC; 32 µg/mL (≈ 68.4 µM) with S. pyogenes ATCC 19615; more than 64 µg/mL against S. pneumoniae ATCC 49619; more than 64 µg/mL against S. aureus ATCC 29213 (ATCC29213); more than 64 µg/mL in assay [10]; more than 64 µg/mL in the assay with C. difficile BAA 1805.

With `CSC1O[C@H]([C@H](NC(=O)[C@H]2NC[C@@H]3C[C@@H](c4cc(F)cc(F)c4)CCO[C@H]32)[C@H](C)Cl)C(O)[C@@H](O)[C@H]1O` (stereo partly drawn) [FSA-511080], the MIC in assay [2] (S. pyogenes MMX 946 MacRes, read-out: MIC) was 32 µg/mL (≈ 58.1 µM); in assay [4] (E. faecalis MMX 847 MacRes, read-out: MIC) it was more than 64 µg/mL; in the assay on K. pneumoniae ATCC 10031, 16 µg/mL (≈ 29 µM); in the assay with H. influenzae ATCC 49247, 16 µg/mL (≈ 29 µM); in the assay on S. aureus MMX 3035 cErmA (S. aureus MMX 3035 cErmA, read-out: MIC) it was more than 64 µg/mL; in the assay on S. aureus BAA 977 iErmA, 0.25 µg/mL (≈ 0.454 µM). For the same molecule, the MIC is 0.5 µg/mL (≈ 0.907 µM) with E. faecalis ATCC 29212 (ATCC29212, read-out: MIC); not above 0.06 µg/mL in assay [6]; more than 64 µg/mL in the assay on E. coli ATCC 25922 (ATCC25922, E. coli ATCC 25922, read-out: MIC); 16 µg/mL (≈ 29 µM) in assay [9]; 4 µg/mL (≈ 7.26 µM) in the assay on E. coli MP-9 ΔTolC; not above 0.06 µg/mL with S. pyogenes ATCC 19615. For the same molecule, the MIC in [8] is 8 µg/mL (≈ 14.5 µM); with S. pneumoniae ATCC 49619 (setting [11]), not above 0.06 µg/mL; in the assay with S. aureus ATCC 29213 (setting [12]), 0.12 µg/mL (≈ 0.218 µM); in [10], 0.25 µg/mL (≈ 0.454 µM).
